In general, TGI refers to the concentration giving total growth inhibition. High values mean less potent growth arrest, low ones more potent growth arrest. One may read the GI50 as the concentration at which growth is held to half of that of the control.

Here are results for 19 compounds from PubChem BioAssay (NCI).

What all share (assay): DTP human tumour cell line panel, 48 h
The subject of test [1] is 786-0 renal.
Test [2] relates to CAKI-1 renal.
In test [3] the test system is CCRF-CEM leukemia.
Test [4] relates to HCT-15 colon.
Test [5] has as its system LOX IMVI melanoma.
Test [6] concerns MDA-MB-435.
Test [7] has as its system MOLT-4 leukemia.
Test [8] relates to NCI-H226 lung.
Test [9] deals with NCI/ADR-RES ovarian.
Test [10] concerns OVCAR-4 ovarian.
The test system of test [11] is SF-268 CNS.
The test system of test [12] is SK-MEL-28 melanoma.
The subject of test [13] is UO-31 renal.

“And” between values parts separate entries of the source, which are not always exact repeats. Equal values may be shown once.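 How tested: cells in 96-well plates exposed to compound for 48 hours at five concentrations. The concentration for 50% growth inhibition is given as GI50. The concentration for full growth arrest is given as TGI.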

Turning to `CN(CCCNC(=O)c1nn(-c2ccc(Cl)cc2Cl)c2c1ccc1ccccc12)CCCNC(=O)c1nn(-c2ccc(Cl)cc2Cl)c2c1ccc1ccccc12`, the TGI in test [1] was 2.95 µM; in [2] it was 3.05 µM; in test [3], 5.7 µM; in [4], 3.24 µM; in test [5], 3.2 µM; in test [6], 3.23 µM. The concentration for total growth inhibition (TGI) is 3.63 µM in test [7]; 4.86 µM in test [8]; 3.26 µM in test [9]; 3.21 µM in [10]; 3.22 µM in test [11].
For `NC(CCOCCP(=O)(O)CCOCCC(N)C(=O)O)C(=O)O` (stereo unspecified), the TGI in test [2], in test [3], in test [4], in [6], in test [7] and in [9] was > 100 µM each time. Moreover, the total growth inhibition concentration (TGI) in test [10], in test [11], in [12] and in [13] was > 100 µM in each case.
As for `C=CC(C)CCC(C/C=C(\C)CCC=C(C)C)C(=C)CCCC(C)C` (stereo unspecified), the TGI in [1], in [2], in [3], in [4], in [5] and in test [6] was > 100 µM in each case. For the same compound, the TGI in test [7], in [9], in [10], in test [11], in test [12] and in [13] was > 100 µM each time.
`O=C1OCc2cccc3c2-c2c1cccc2C(=O)OC3`: the concentration for total growth inhibition (TGI) in [2], in test [4], in test [7], in test [10], in test [11] and in test [12] was > 100 µM throughout. In addition, in test [13], the total growth inhibition concentration (TGI) is > 100 µM.
On to `CCc1c(Cc2cc(C)cc(C)c2)n2c(nc1=O)SCC2CBr` (stereo unspecified), for which the TGI in test [1], in test [2], in [3], in [4], in test [5] and in test [6] was > 50 µM each time. Besides, the TGI in test [7], in [8], in test [9], in [10], in test [11] and in [12] was > 50 µM throughout. Moreover, the concentration for total growth inhibition (TGI) in test [13] was > 50 µM.
With `C/C(=C\c1ccc(Cl)c(Cl)c1)[N+](=O)[O-]`, the TGI in test [1] was 3.18 µM; in test [2], 2.51 µM; in [4], 4.13 µM and 3.18 µM; in [5], 2.62 µM and 0.955 µM; in [6], 3.71 µM and 4.55 µM; in test [7], > 100 µM. Also, the TGI in test [8] was 42.6 µM and 5.26 µM; in [10] it was 3.09 µM; in test [11] it was 3.31 µM and 3.33 µM; in test [12], 3.14 µM and 4.81 µM; in test [13], 2.61 µM and 2.66 µM. In addition, the GI50 is 1.1 µM in [2]; 1.19 µM in test [5]; 1.84 µM in test [6]; 2.58 µM in test [7]; 17.5 µM in test [8]; 1.66 µM in test [11]. Also, the GI50 in test [12] was 1.75 µM.
For the compound `c1ccc(C[n+]2cccc(-c3cc4ccccc4[nH]3)c2)cc1`, the total growth inhibition concentration (TGI) in test [1] is > 100 µM; in [2], > 100 µM; in test [3] it was 38.6 µM; in test [4] it was > 100 µM; in test [5], 37.9 µM; in [6], 43.7 µM. Also, the TGI was 91.1 µM in [7]; > 100 µM in [8]; > 100 µM in test [9]; > 100 µM in test [10]; > 100 µM in [11]; 38 µM in test [12]. In [13], the TGI was > 100 µM.
Regarding `CCCCC(=O)Oc1ccc2c(C)cc(=O)oc2c1`, the TGI in test [1], in test [2], in [3], in [5], in test [6] and in test [7] was > 100 µM throughout. Besides, the TGI in test [8], in test [9], in test [10], in test [11], in test [12] and in test [13] was > 100 µM in each case.
For the compound `O=C1/C(=C/c2ccco2)N=C(c2ccccc2)N1c1cc2cc(Sc3ccccc3)ccc2[nH]1`, the TGI in [1], in test [2], in [3], in [4], in [5] and in test [6] was > 25 µM each time. Besides, the total growth inhibition concentration (TGI) in test [7], in test [9], in [10], in test [11], in [12] and in test [13] was > 25 µM in each case.
In the case of `NC(=O)NC(=O)c1cccc(NC(=O)CBr)c1`, the TGI is < 0.0333 µM in test [1]; 0.321 µM in [2]; 0.384 µM in test [4]; 0.193 µM in test [5]; < 0.0358 µM in test [6]; 0.067 µM in test [8]. For the same compound, the total growth inhibition concentration (TGI) in [9] is 0.799 µM; in [10], 3.11 µM; in test [11], < 0.0275 µM; in test [12], 7.47 µM; in test [13], 1.68 µM.
For the compound `COc1cccc(CC2Cc3ccccc3CC(=O)N2)c1` (stereo unspecified), the TGI was 68.6 µM in test [2]; > 100 µM in [3]; 70.9 µM in test [5]; > 100 µM in [6]; > 100 µM in test [7]; > 100 µM in [8]. Further, the total growth inhibition concentration (TGI) in [9], in test [10], in test [11], in test [12] and in [13] was > 100 µM in each case.
As to `O=C(c1ccccc1)c1sc2c(=O)c(C(=O)c3ccccc3)c(C(=O)c3ccccc3)sc2c(=O)c1C(=O)c1ccccc1`, the TGI in test [1] is > 100 µM; in test [2], 34.5 µM; in test [3] it was > 100 µM; in [4], > 100 µM; in [5], > 100 µM; in test [6], 70.9 µM. Also, the total growth inhibition concentration (TGI) in test [7] was > 100 µM; in test [8], > 100 µM; in [9], 74.9 µM; in test [10], > 100 µM; in test [11] it was > 100 µM; in test [12], > 100 µM. Besides, the total growth inhibition concentration (TGI) in test [13] is 22.6 µM.
As to `CC(C)NCCC(O)c1cc2ccccc2o1` (stereo unspecified), the TGI was > 100 µM in [1]; > 100 µM in test [2]; > 100 µM in test [4]; > 100 µM in test [5]; > 100 µM in test [6]; 49.2 µM in test [7]. For the same compound, the TGI in [8], in test [9], in [10], in [11], in [12] and in test [13] was > 100 µM each time.
In the case of `c1ccc(-c2nnc(-c3nsc4ccccc34)o2)cc1`, the TGI in [3], in [4], in test [5], in [7], in [10] and in test [11] was > 100 µM throughout. The concentration for total growth inhibition (TGI) in test [12] and in test [13] was > 100 µM throughout.
As for `OC1CN2Cc3cc4c(cc3[C@]13C=C[C@@H](O)CC23)OCO4` (stereo partly specified), the TGI in test [1] is > 100 µM; in test [2], > 100 µM; in [3] it was 48.5 µM; in [4] it was > 100 µM; in [5] it was > 100 µM; in test [6], > 100 µM. The TGI in test [7], in test [8], in test [9], in test [10], in test [11] and in [12] was > 100 µM throughout. The TGI in test [13] was > 100 µM.
Take `NC(Cc1ccccc1)(C(=O)O)C(=O)O`: the TGI in [1], in [2], in test [3], in test [4], in test [5] and in test [6] was > 100 µM each time. Also, the TGI in test [7], in test [8], in [9], in test [10], in test [11] and in [12] was > 100 µM throughout. Besides, in test [13], the concentration for total growth inhibition (TGI) was > 100 µM.
As for `COc1ccc(Cc2nccc3cc(OC)c(OC)cc23)cc1OC`, the TGI in test [1], in test [2], in test [3], in test [4], in test [5] and in test [6] was > 100 µM throughout. The TGI in test [7], in [8], in test [9], in test [10], in test [11] and in [12] was > 100 µM in each case. In addition, the total growth inhibition concentration (TGI) in test [13] is > 100 µM.
For the compound `CCOC(=O)C1=C(C)N(NC(N)=O)C2(O)CCCC(=O)C12C` (stereo unspecified), the TGI in test [2], in test [4], in [5], in test [8], in test [10] and in test [12] was > 100 µM throughout.
Consider `O=C1/C(=C/c2ccc(Cl)cc2)N=C(c2ccccc2)N1c1ccc(S(=O)(=O)Nc2nccs2)cc1`, for which the TGI in test [1] was > 100 µM; in [2], > 100 µM; in test [3], 87 µM; in test [4], > 100 µM; in test [5], > 100 µM; in [6], 76.4 µM. For the same compound, the TGI in test [7] is 83.2 µM; in test [8], > 100 µM; in test [9], > 100 µM; in test [10], > 100 µM; in test [11], > 100 µM; in test [12], > 100 µM. Further, the concentration for total growth inhibition (TGI) in [13] is > 100 µM.
